Data: EP0165970B1, “HAIR GROWTH MODIFICATION” (KASZYNSKI, Edwin G., priority 1983, dated 1985)

How the values were obtained:
[1] = tested on: flank organ hair; assay: Flank organ hair mass (hair re-growth) after topical application; format: in vivo; settings: adult intact male hamsters
Excerpt: The absence of antagonism of synthemic androgen activity in the practice of our invention can be shown by the topical application of suitable compositions to one of the two flank organs of mature male hamsters. Dose-related decreases in androgen-dependent flank organ hair growth are obtained on the treated side but no statistically significant change occurs in the contralateral, vehicle-treated side. Similar studies have been conducted using female hamsters in which hair growth on the flank organs has been stimulated by the subcutaneous administration of a suitable androgen.
Summarized below are the results of several experiments comparing the efficacy of several compositions in reducing the flank organ hair mass in adult intact male hamsters. In each case, hamsters were treated for 15 days (Monday-Friday) during a 21-day interval. Flank organ hairs were depilated on the first day of treatment and redepilated on the sixth day of treatment. The mass of flank organ hair represents the re-growth during the final 14 days of the 21-day interval. The results for percent inhibition shown below are based upon comparisons between the hair mass values of hairs hervested from treated flank organs of experimental animals and those obtained from vehicle-treated control animals.

[2] = tested on: ornithine decarboxylase (ODC); assay: Flank organ ornithine decarboxylase (ODC) activity, in vivo screen for topical antiandrogens; parameters: species or system hamsters; settings: for ODC activity in flank organs: applied topically, single agents
Excerpt: A novel method for screening topical antiandrogens has been developed in which the fluctuations in flank organ activity of the enzyme ornithine decarboxylase (ODC) in response to androgens and antiandrogens is exploited to provide a rapid, in vivo screen for antiandrogens, based on a biochemical parameter specifically related to androgenic stimulation of pilosebaceous target tissues.
A further series of investigations on the androgenic regulation of ODC activity in hamster flank organs has been conducted to test topical antiandrogenic formulations consisting of combination regimens.

[3] = Experiment III, 500 micrograms per square centimeter
[4] = unilateral topical application, flank organs of intact (uncastrated) male hamsters
[5] = topical, androgen stimulated female hamsters

## CC(=O)O[C@]1(C(C)=O)CC[C@H]2[C@@H]3C=C(Cl)C4=CC(=O)CC[C@]4(C)[C@H]3CC[C@@]21C [Chlormadione acetate]
[1]; [3]
  % Inhibition: 45%
[2]
  ODC activity in flank organs: inhibit ODC activity

## C[C@]12CC[C@H]3[C@@H](CCC4=CC(=O)CC[C@@]43C)[C@@H]1CC[C@@H]2C(=O)O [4-androstene-3-one-17B- Carboxylic acid]
[1]; Experiment II, 400 micrograms per square centimeter
  % Inhibition: 29%

## CC(=O)S[C@@H]1CC2=CC(=O)CC[C@]2(C)[C@H]2CC[C@@]3(C)[C@@H](CC[C@@]34CCC(=O)O4)[C@H]12 [Spironolactone]
[1]; [3]
  % Inhibition: 41%

## C=CC[C@]1(O)CC[C@H]2[C@@H]3CCC4=CC(=O)CC[C@]4(C)[C@H]3CC[C@@]21C [17-α-allyltestosterone]
[1]; Experiment IV, 5 micrograms per square centimeter
  % Inhibition: 0%
[1]; Experiment IV, 20 micrograms per square centimeter
  % Inhibition: 29%
[1]; Experiment IV, 50 micrograms per square centimeter
  % Inhibition: 50%
[1]; Experiment IV, 100 micrograms per square centimeter
  % Inhibition: 50%
[2]
  ODC activity in flank organs: inhibit ODC activity
[2]; [4]
  ODC activity: selectively decreased ODC activity on treated but not untreated flank organs

## CCC[C@]1(O)CC[C@H]2[C@@H]3CCC4=CC(=O)CC[C@]4(C)[C@H]3CC[C@@]21C [17-α-Propyltestosterone]
[1]; Experiment I, 6 micrograms per square centimeter
  % Inhibition: 26%
[2]
  ODC activity in flank organs: inhibit ODC activity
[2]; [4]
  ODC activity: selectively decreased ODC activity on treated but not untreated flank organs

## CC(=O)O[C@]1(C(C)=O)CC[C@H]2[C@@H]3C=C(Cl)C4=CC(=O)[C@@H]5C[C@@H]5[C@]4(C)[C@H]3CC[C@@]21C [Cyproterone acetate]
[1]; Experiment I, 500 micrograms per square centimeter
  % Inhibition: 26%
[1]; Experiment II, 50 micrograms per square centimeter
  % Inhibition: 23%
[1]; Experiment II, 500 micrograms per square centimeter
  % Inhibition: 38%
[2]
  ODC activity in flank organs: inhibit ODC activity
[2]; [5]
  ODC activity: inhibited ODC activity

## CC(=O)[C@H]1CC[C@H]2[C@@H]3CCC4=CC(=O)CC[C@]4(C)[C@H]3CC[C@]12C [Progesterone]
[1]; Experiment I, 15 days treatment in 21-day interval, 1000 micrograms per square centimeter
  % Inhibition: 30%
[1]; Experiment III, 1000 micrograms per square centimeter
  % Inhibition: 57%
[1]; Experiment IV, 1000 micrograms per square centimeter
  % Inhibition: 48%
[2]
  ODC activity in flank organs: inhibit ODC activity
[2]; [5]
  ODC activity: inhibited ODC activity
